From patent US12195427B2, “MASP-2 inhibitors and methods of use” (priority 2018, dated 2025)

Target: MASP-2 CCP2-SP (Homo sapiens (Human), UniProt O00187)
Experiment: MASP-2 co-crystallization, X-ray crystallography and structure analysis (H-bonds, van der Waals contacts);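 for Ligand-pharmacophore element distance, pharmacophore element C2: distance from averaged pharmacophore element to bound ligand; missing value means element absent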;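 for Ligand-pharmacophore element distance, pharmacophore element C3: distance from averaged pharmacophore element to bound ligand; missing value means element absent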;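 for Ligand-pharmacophore element distance, pharmacophore element C4: distance from averaged pharmacophore element to bound ligand; missing value means element absent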;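 for Ligand-pharmacophore element distance, pharmacophore element C5: distance from averaged pharmacophore element to bound ligand; missing value means element absent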
Set-up: van der Waals contact distance, MASP-2 HIS 483 atom CD2 / van der Waals contact distance, MASP-2 HIS 483 atom NE2 / van der Waals contact distance, SER 654 C to compound atom / van der Waals contact distance, SER 654 O to compound atom / van der Waals contact distance, TRP 655 C to compound atom / van der Waals contact distance, MASP-2 GLY 528 atom CA / van der Waals contact distance TRP 655 atom CZ3 / van der Waals contact distance TRP 655 atom N / van der Waals contact distance TRP 655 atom CE3 / van der Waals contact distance GLY 656 atom C / van der Waals contact distance GLY 656 atom CA / van der Waals contact distance GLY 656 atom O / van der Waals contact distance, MASP-2 TYR 607 atom CD1 / van der Waals contact distance, MASP-2 PRO 606 atom O / d(C3,CA1) / d(CA1,N1)2 / d(H4,O1) / d(H4,O2) / d(O1,O2) / d(CA1,O2) / d(CA6,O1) / d(CA6,O2) / d(CA1,C5) / d(O2,H3) / d(N2,C2) / d(CA5,N2) / d(N2,C4) / d(N2,C6) / d(N2,CA3) / d(N2,O3) / d(O4,H2): unit not given beside the values
Conditions: for H-bond distance to MASP-2 SER 628 atom O: SER 628 O; for H-bond distance to MASP-2 SER 657 atom O: SER 657 O; for van der Waals contact distance, MASP-2 HIS 483 atom NE2 / van der Waals contact distance, MASP-2 HIS 483 atom CD2: Table A2-1; for H-bond distance to MASP-2 GLY 656 atom N: GLY 656 N; for H-bond distance to MASP-2 SER 654 atom O: SER 654 O; for Ligand-pharmacophore element distance, pharmacophore element C2 / Ligand-pharmacophore element distance, pharmacophore element C3 / Ligand-pharmacophore element distance, pharmacophore element C4 / Ligand-pharmacophore element distance, pharmacophore element C5 / Ligand-pharmacophore element distance, pharmacophore element C6 / Ligand-pharmacophore element distance, pharmacophore element C7 / Ligand-pharmacophore element distance, pharmacophore element CA1 / Ligand-pharmacophore element distance, pharmacophore element CA2 / Ligand-pharmacophore element distance, pharmacophore element CA3 / Ligand-pharmacophore element distance, pharmacophore element CA4 / Ligand-pharmacophore element distance, pharmacophore element CA5 / Ligand-pharmacophore element distance, pharmacophore element CA6: Table A4-1; for d(C3,CA1) / d(CA1,N1)2 / d(CA1,O1) / d(CA1,O2) / d(H4,O1) / d(H4,O2) / d(O1,O2): Table A5-1 pharmacophore: distance between elements, S2/S1 region; for d(N2,C2) / d(N2,CA2) / d(O2,H3) / d(O2,N2): Table A5-2 pharmacophore distance, S3/S4 region; for a(C3, CA1, O1) / a(CA1, O1, O2) / a(O1, O2, H4) / a(N1, CA1, O1) b): Table A6-1 pharmacophore angle; for a(N1, CA1, O1) b): Methyl-amino-pyridine compounds; for a(O1, O2, H3) / a(O1, O2, N2) / a(O2, N2, C2) / a(O2, N2, CA2): Table A6-2 pharmacophore angle; for Pharmacophore torsion angle a(C3, CA1, O1, H4) / Pharmacophore torsion angle a(H4, O1, O2, H3) / Pharmacophore torsion angle a(H4, O1, O2, N2) / Pharmacophore torsion angle a(N1, CA1, O1, H4) / Pharmacophore torsion angle a(O1, H4, O2, CA1) / Pharmacophore torsion angle a(O1, O2, N2, C2): Table A7-1
Source text: This example illustrates the preparation of recombinant MASP-2 protein, based on UniProt O00187, human mannan-binding lectin serine protease 2. Expression constructs for human MASP-2 CCP2-SP and CCP2-SP-6HIS were generated for recombinant expression in E. coli cells.
Typically, crystallization hits were obtained by screening against […] 96-well crystallization reagent kits (GRAS6, GRAS2, Hampton Research; MORPHEUS, Molecular Dimensions; Wizard 1&2 Cryo, Rigaku Reagents) and crystal growth was inspected by optical microscopy. Crystals were used directly or further optimized for X-ray diffraction. Crystals were captured with cryogenic loops and dipped into liquid nitrogen directly or cryoprotected with a 20% glycerol in crystallization formulation before flash-cooling in liquid nitrogen.
Thereafter crystals are transferred once or twice for soaking within the crystallization solution containing the MASP-2 inhibitor.
Crystals were diffracted with synchrotron X-rays of […] and X-ray diffraction datasets were collected at beamlines SSRL BL9-2, BL14-1, BL12-2 as well as ALS sector 5 using Dectris Pilatus and Eiger detectors. Structures were determined by molecular replacement using portions of the structure 1Q3X as search models and partially refined with Buster 2.10.2 or Refmac 5.8. […] When multiple ligand poses were observed, for instance arising from multiple molecules in the asymmetric unit or refined dual poses within the same molecule, only one pose was selected and analyzed.
LigPlot+ calls these ‘nonbonded contacts’ or ‘hydrophobic contacts’. Despite the name, there are atom pairings that include possible H-bonds. Thus, in some instances, the Table A2 also contains H-bond interactions.

[1] = Table A2-9, ARG 630, AA atoms CG, CZ
[2] = between pharmacophore elements of the bound compound
[3] = Table A7-2, between pharmacophore elements of the bound compound

Sequence of MASP-2 CCP2-SP (O00187 445-686): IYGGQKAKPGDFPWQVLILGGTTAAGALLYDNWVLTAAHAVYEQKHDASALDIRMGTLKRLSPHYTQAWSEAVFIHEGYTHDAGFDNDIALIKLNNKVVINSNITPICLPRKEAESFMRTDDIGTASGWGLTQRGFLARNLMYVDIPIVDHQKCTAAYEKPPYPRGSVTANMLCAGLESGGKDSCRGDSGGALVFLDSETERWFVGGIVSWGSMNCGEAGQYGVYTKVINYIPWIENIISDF
Sequence of MASP-2 CCP2-SP (O00187 364-432 partner): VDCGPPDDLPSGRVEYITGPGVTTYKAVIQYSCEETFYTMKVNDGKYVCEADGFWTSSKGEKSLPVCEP

Structure (SMILES): C[C@H](NC(=O)[C@H](N)CCCc1ccccc1)C(=O)NCc1ccc(C(=N)N)cc1 [compound 1042]
- H-bond distance to MASP-2 ASP 627 atom OD1 (Table A1 (H-Bonds), ASP 627 OD1): 3.32
- H-bond distance to MASP-2 GLY 656 atom O (Table A1 (H-Bonds), GLY 656 O): 2.34
- H-bond distance to MASP-2 SER 628 atom O (Table A1 (H-Bonds)): 2.74
- H-bond distance to MASP-2 SER 657 atom O (Table A1 (H-Bonds)): 2.65
- van der Waals contact distance, MASP-2 HIS 483 atom NE2: 3.56
- van der Waals contact distance, MASP-2 PHE 529 atom CZ (Table A2-3): 3.57
- van der Waals contact distance, SER 654 C to compound atom (Table A2-11): 3.36
- van der Waals contact distance, TRP 655 C to compound atom (Table A2-12): 3.57

Structure (SMILES): C[C@H](NC(=O)[C@H]1C[C@@H](c2ccccc2)CCN1)C(=O)NCc1cc(Cl)ccc1O [compound 1078]
- H-bond distance to MASP-2 ARG 630 atom NH1 (second bond) (Table A1 (H-Bonds), ARG 630 NH1): 3.25
- H-bond distance to MASP-2 ARG 630 atom NH1 (Table A1 (H-Bonds), ARG 630 NH1, first column): 2.92
- H-bond distance to MASP-2 GLY 656 atom N (Table A1 (H-Bonds)): 3.14
- H-bond distance to MASP-2 SER 654 atom O (Table A1 (H-Bonds)): 2.66
- van der Waals contact distance, MASP-2 HIS 483 atom CD2: 3.35
- van der Waals contact distance, MASP-2 HIS 483 atom NE2: 3.28
- van der Waals contact distance, MASP-2 amino acid atom to compound atom [1]: 3.78
- van der Waals contact distance, VAL 653 CG1 to compound atom (Table A2-11): 3.49

Structure (SMILES): Cc1nc(N)ccc1CNC(=O)[C@H](C)NC(=O)[C@H]1C[C@@H](c2ccccc2)CCN1C [compound 1441, (2R,4S)—N—((S)-1-(((6-Amino-2-methylpyridin-3-yl)methyl)amino)-1-oxopropan-2-yl)-1-methyl-4-phenylpiperidine-2-carboxamide]
- H-bond distance to MASP-2 ASP 627 atom OD2 (Table A1 (H-Bonds), ASP 627 OD2): 3.23
- H-bond distance to MASP-2 GLY 656 atom N (Table A1 (H-Bonds)): 3.2
- H-bond distance to MASP-2 SER 628 atom O (Table A1 (H-Bonds)): 3.06
- H-bond distance to MASP-2 SER 654 atom O (Table A1 (H-Bonds)): 3.07
- H-bond distance to MASP-2 SER 657 atom O (Table A1 (H-Bonds)): 2.91
- van der Waals contact distance, MASP-2 amino acid atom to compound atom (Table A2): 3.8
- van der Waals contact distance, MASP-2 HIS 483 atom CD2: 3.74
- van der Waals contact distance, MASP-2 HIS 483 atom NE2: 3.61
- van der Waals contact distance, MASP-2 GLY 528 atom CA (Table A2-2): 3.71
- van der Waals contact distance, MASP-2 PHE 529 atom CE1 (Table A2-3): 3.85
- van der Waals contact distance, MASP-2 amino acid atom to compound atom [1]: 3.87
- van der Waals contact distance, VAL 653 CG1 to compound atom (Table A2-11): 3.38
- van der Waals contact distance, SER 654 O to compound atom (Table A2-12): 3.85
- van der Waals contact distance, TRP 655 CA to compound atom (Table A2-12): 3.34
- van der Waals contact distance TRP 655 atom CE3 (Table A2-13, MASP-2 TRP 655 CE3, compound atom in line below): 3.65
- van der Waals contact distance TRP 655 atom CZ3 (Table A2-13, MASP-2 TRP 655 CZ3): 3.75
- Ligand-pharmacophore element distance, pharmacophore element C2: 0.54
- Ligand-pharmacophore element distance, pharmacophore element C3: 0.17
- Ligand-pharmacophore element distance, pharmacophore element C4: 0
- Ligand-pharmacophore element distance, pharmacophore element C5: 0
- Ligand-pharmacophore element distance, pharmacophore element C6: 0
- Ligand-pharmacophore element distance, pharmacophore element C7: 0
- Ligand-pharmacophore element distance, pharmacophore element CA1: 0.64
- Ligand-pharmacophore element distance, pharmacophore element CA2: 0.64
- Ligand-pharmacophore element distance, pharmacophore element CA3: 0
- Ligand-pharmacophore element distance, pharmacophore element CA4: 0
- Ligand-pharmacophore element distance, pharmacophore element CA5: 0
- Ligand-pharmacophore element distance, pharmacophore element CA6: 0
- d(C3,CA1): 2.85
- d(CA1,N1)2: 1.37
- d(CA1,O1): 4.27
- d(CA1,O2): 3.96
- d(H4,O1): 4.29
- d(H4,O2): 3.79
- d(O1,O2): 3.29
- d(N2,C2): 1.45
- d(N2,CA2): 5.75
- d(O2,H3): 4.15
- d(O2,N2): 2.72
- a(C3, CA1, O1): 148.89
- a(CA1, O1, O2): 108.56
- a(O1, O2, H4): 132.47
- a(N1, CA1, O1) b): 173.13
- a(O1, O2, H3): 145.43
- a(O1, O2, N2): 144.23
- a(O2, N2, C2): 131.10
- a(O2, N2, CA2): 156.32
- Pharmacophore torsion angle a(C3, CA1, O1, H4) [2]: 21.88
- Pharmacophore torsion angle a(H4, O1, O2, H3) [2]: 50.54
- Pharmacophore torsion angle a(H4, O1, O2, N2) [2]: 141.99
- Pharmacophore torsion angle a(N1, CA1, O1, H4) [2]: −6.82
- Pharmacophore torsion angle a(O1, H4, O2, CA1) [2]: −80.01
- Pharmacophore torsion angle a(O1, O2, N2, C2) [2]: 117.29
- Pharmacophore torsion angle a(O1, O2, N2, CA2) [3]: 126.16

Structure (SMILES): Cc1nc(N)ccc1CNC(=O)[C@H](C)NC(=O)[C@H]1C[C@@H](c2cccc3ccccc23)CCN1.Cl.Cl [1297_4]
- Ligand-pharmacophore element distance, pharmacophore element C2: 0.31
- Ligand-pharmacophore element distance, pharmacophore element C3: 0.18
- Ligand-pharmacophore element distance, pharmacophore element C4: 0
- Ligand-pharmacophore element distance, pharmacophore element C5: 0
- Ligand-pharmacophore element distance, pharmacophore element C6: 0
- Ligand-pharmacophore element distance, pharmacophore element C7: 0
- Ligand-pharmacophore element distance, pharmacophore element CA1: 0.48
- Ligand-pharmacophore element distance, pharmacophore element CA2: 0.24
- Ligand-pharmacophore element distance, pharmacophore element CA3: 0
- Ligand-pharmacophore element distance, pharmacophore element CA4: 0.98
- Ligand-pharmacophore element distance, pharmacophore element CA5: 0
- Ligand-pharmacophore element distance, pharmacophore element CA6: 0
- d(C3,CA1): 2.87
- d(CA1,N1)2: 1.37
- d(CA1,O1): 4.44
- d(CA1,O2): 3.67
- d(H4,O1): 4.35
- d(H4,O2): 3.67
- d(O1,O2): 3.50
- d(N2,C2): 1.47
- d(N2,CA2): 5.72
- d(O2,H3): 4.02
- d(O2,N2): 2.76
- a(C3, CA1, O1): 149.60
- a(CA1, O1, O2): 103.60
- a(O1, O2, H4): 129.06
- a(N1, CA1, O1) b): 174.41
- a(O1, O2, H3): 145.24
- a(O1, O2, N2): 143.80
- a(O2, N2, C2): 131.10
- a(O2, N2, CA2): 156.08
- Pharmacophore torsion angle a(C3, CA1, O1, H4) [2]: 28.23
- Pharmacophore torsion angle a(H4, O1, O2, H3) [2]: 51.40
- Pharmacophore torsion angle a(H4, O1, O2, N2) [2]: 142.36
- Pharmacophore torsion angle a(N1, CA1, O1, H4) [2]: 26.25
- Pharmacophore torsion angle a(O1, H4, O2, CA1) [2]: −89.51
- Pharmacophore torsion angle a(O1, O2, N2, C2) [2]: 110.29
- Pharmacophore torsion angle a(O1, O2, N2, CA2) [3]: 126.11
- Pharmacophore torsion angle a(O1, O2, N2, CA4) [3]: 105.94
